Source: patent publication US11518981B2, “Methods of enhancing engraftment activity of hematopoietic stem cells” (CHILDREN'S HOSPITAL MEDICAL CENTER, priority 2017, dated 2022)

Assays:
[1] = tested on: CD34^+38^−90^+ HSCs; assay: cell cycle analysis (Ki-67 / Hoechst) of HSCs; assay type: cell-based, human
[2] = tested on: human MPB derived CD34^+ cells; assay: human CD45^+ engraftment in bone marrow of NSG mice after primary transplant (1 T); assay type: in vivo; settings: 24 weeks post 1 T; 72-96 h LV and RV groups
Procedure: Freshly isolated CD34^+ cells were used, wherever possible, and especially for 0 h controls. In some experiments cryopreserved CD34^+ cells were thawed for 4 hrs in IMDM containing cytokines, then washed and used for experiments. […] Cells were kept in culture for a total of either 18-24 hours, 36-42 hours or 72-96 hours. For RV transduction, human CD34^+ cells were pre-stimulated for 2 days (42-48 hours) hours at a cell density of 3×10^5 cells/ml. Retronectin coated tissue culture flasks or plates were preloaded at room temperature with GALV pseudotyped RV twice for one hour each. The vector supernatant was removed and the cells were loaded into the RV loaded retronectin coated flasks. RV transduction was also performed twice 24 hours apart at an MOI ranging from 5 to 10. After total of 72-96 hours in culture, cells were harvested. LV and RV transductions were performed at 37° C. under 5% CO2 in ambient oxygen concentrations (20% 02). For some experiments, LV was added just like RV after 2 days of pre-stimulation. p38 MAPK inhibitors Birb 796 (600 nM), Vx-745 (1 μM), or LY 2228820 (500 nM) (all from Selleckchem) were supplemented to the culture media. […] Human engraftment was analyzed in bone marrow (BM), via BM aspirates performed at 6 and 12 weeks from left and right femurs. […]

[3] = before the first HSC division in vitro (24 h)

Cc1ccc(-n2nc(C(C)(C)C)cc2NC(=O)Nc2ccc(OCCN3CCOCC3)c3ccccc23)cc1 [p38i, 1-[5-tert-butyl-2-(4-methylphenyl)pyrazol-3-yl]-3-[4-(2-morpholin-4-ylethoxy)naphthalen-1-yl]urea]
percentage of cells in the different phases of cell cycle ([1]; HSCs transduced when actively cycling (RV)): no difference | effect on increasing the G0 population ([1]; after HSCs progressed through cell cycle): lost | proportion of HSCs in the G0 quiescent phase [1, 3]: significantly increased | proportion of HSCs in the S-G2M phase [1, 3]: decreased | human CD45^+ cell engraftment in the NSG BM [2]: improved
